GI50 and TGI data for 8 compounds are collected here from PubChem BioAssay (NCI).

Each structure is given as a SMILES string.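 Method: 48-hour compound exposure of cells in 96-well plates, five concentrations, linear interpolation of endpoints. GI50 = concentration required for 50% inhibition of growth. TGI is the concentration that stops growth completely.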

Among the test systems are NCI-H522 lung; MALME-3M melanoma; MOLT-4 leukemia; NCI-H23 lung; TK-10 renal; MDA-MB-435; ACHN renal; M14 melanoma; NCI-H226 lung; SK-OV-3 ovarian.
Holding throughout (experiment): NCI tumour cell line growth inhibition, 48 h

As to `CCCCC(CC)COC(=O)C[N+](C)(C)CCOC(c1ccccc1)c1ccccc1` (stereo not given), the GI50 was 1.75 µM with NCI-H522 lung; 1.49 µM with MALME-3M melanoma; 2.5 µM with MOLT-4 leukemia; 3.77 µM in the assay with NCI-H23 lung; 4.26 µM with TK-10 renal; 1.71 µM in the assay on MDA-MB-435. Further, the GI50 in the assay with ACHN renal is 15 µM; in the assay with M14 melanoma, 1.63 µM; with NCI-H226 lung, 6.83 µM; with SK-OV-3 ovarian, 6.38 µM. The TGI with NCI-H522 lung was found to be 3.67 µM; in the assay with MALME-3M melanoma, 3.09 µM; in the assay on MOLT-4 leukemia, 6.66 µM; with NCI-H23 lung, 15.9 µM; with TK-10 renal, 17.6 µM; in the assay on MDA-MB-435 it was 3.09 µM. Further, the TGI with ACHN renal amounted to 30.5 µM; in the assay with M14 melanoma, 3.23 µM; in the assay on NCI-H226 lung, 27.4 µM; with SK-OV-3 ovarian, 21.8 µM.
For the compound `CN1CCN(CCCNc2nc3ccc(Oc4ccc(NC(=O)Nc5cc(C(F)(F)F)ccc5F)cc4)cc3[nH]2)CC1`, the GI50 with NCI-H522 lung was 3.8 µM; with MALME-3M melanoma, 4.69 µM; in the assay on MOLT-4 leukemia it was 4.83 µM; in the assay with NCI-H23 lung it was 4.03 µM; in the assay on TK-10 renal, 3.93 µM; in the assay on MDA-MB-435, 4.1 µM. Besides, the GI50 with ACHN renal was 17.5 µM; in the assay with M14 melanoma, 4.54 µM; in the assay on NCI-H226 lung, 5.55 µM; in the assay with SK-OV-3 ovarian, 4.36 µM. For the same compound, the TGI in the assay with NCI-H522 lung was found to be 7.27 µM; in the assay with MALME-3M melanoma, 9.67 µM; in the assay with MOLT-4 leukemia, 9.89 µM; in the assay with NCI-H23 lung, 7.9 µM; with TK-10 renal it was 9.07 µM; in the assay on MDA-MB-435, 7.78 µM. The TGI in the assay with ACHN renal is greater than 25 µM; with M14 melanoma it was 8.61 µM; in the assay on NCI-H226 lung it was 16.8 µM; in the assay on SK-OV-3 ovarian it was 10.3 µM.
For the compound `COc1ccc(C(=O)c2cc(OC)c(OC)c(OC)c2)cc1/C=C/C(=O)c1ccc(F)cc1`, the GI50 with NCI-H522 lung is 2.02 µM; in the assay on MALME-3M melanoma, 2.76 µM; with MOLT-4 leukemia it was 3.24 µM; in the assay with NCI-H23 lung it was 6.2 µM; with TK-10 renal it was 4.43 µM; in the assay on MDA-MB-435, 2.88 µM. Moreover, the GI50 was 1.68 µM with ACHN renal, 3.39 µM in the assay with M14 melanoma, 3.57 µM with NCI-H226 lung and 17.9 µM in the assay on SK-OV-3 ovarian. For the same compound, the TGI in the assay with NCI-H522 lung stood at 5.34 µM; in the assay with MALME-3M melanoma, 8.87 µM; in the assay with MOLT-4 leukemia it was 29.3 µM; in the assay on NCI-H23 lung it was 31.1 µM; in the assay with TK-10 renal, 30.9 µM; in the assay on MDA-MB-435 it was 13.6 µM. The TGI amounted to 3.23 µM with ACHN renal, 18 µM in the assay with M14 melanoma, 18.1 µM in the assay with NCI-H226 lung and 73.1 µM in the assay on SK-OV-3 ovarian.
Regarding `C=C1C(=O)O[C@H]2[C@H]1CC/C(COC(=O)NCCCCNC(=O)OC/C1=C/CC[C@@]3(C)O[C@H]3[C@H]3OC(=O)C(=C)[C@@H]3CC1)=C\CC[C@@]1(C)O[C@@H]21`, the GI50 in the assay with NCI-H522 lung is 0.167 µM; in the assay with MALME-3M melanoma, 0.452 µM; in the assay on MOLT-4 leukemia, 1.47 µM; in the assay on NCI-H23 lung, 2.18 µM; in the assay on TK-10 renal it was 1.61 µM; in the assay with MDA-MB-435 it was 1.24 µM. Further, the GI50 in the assay with ACHN renal was 3.44 µM; in the assay on M14 melanoma it was 1.97 µM; with NCI-H226 lung it was 11.4 µM; in the assay on SK-OV-3 ovarian it was 12.7 µM. Moreover, the TGI in the assay with NCI-H522 lung was 0.375 µM; with MALME-3M melanoma it was 2.19 µM; in the assay with MOLT-4 leukemia it was 4.15 µM; in the assay with NCI-H23 lung, 5.54 µM; in the assay with TK-10 renal, 4.12 µM; in the assay with MDA-MB-435 it was 3.41 µM. Also, the TGI in the assay on ACHN renal turned out to be 12.9 µM; with M14 melanoma, 4.82 µM; with NCI-H226 lung, 30.5 µM; in the assay with SK-OV-3 ovarian, 25.3 µM.
In the case of `CCOC(=O)C1CCN(S(=O)(=O)/N=C2/NC(=O)NC2=C(Cl)Cl)CC1`, the GI50 is 2.22 µM in the assay with NCI-H522 lung; 1.7 µM in the assay with MALME-3M melanoma; 1.88 µM with MOLT-4 leukemia; 2.12 µM with NCI-H23 lung; 1.25 µM with TK-10 renal; 1.93 µM in the assay with MDA-MB-435. Also, the GI50 in the assay on ACHN renal is 1.83 µM; in the assay with M14 melanoma, 1.82 µM; with NCI-H226 lung it was 2.86 µM; with SK-OV-3 ovarian it was 9.94 µM. For the same compound, the TGI is 4.28 µM in the assay with NCI-H522 lung; 3.48 µM in the assay on MALME-3M melanoma; 4.46 µM in the assay with MOLT-4 leukemia; 4.38 µM with NCI-H23 lung; greater than 100 µM in the assay on TK-10 renal; 4.66 µM in the assay on MDA-MB-435. For the same compound, the TGI amounted to 3.32 µM with ACHN renal, 3.6 µM in the assay with M14 melanoma, 9.94 µM in the assay on NCI-H226 lung and 21.7 µM in the assay with SK-OV-3 ovarian.
For the compound `CC/C=C\C[C@H](O)C/C=C1/C(=O)C=C[C@@H]1C/C=C\CCCC(=O)OC`, the GI50 is 1.03 µM in the assay with NCI-H522 lung; 2.14 µM with MALME-3M melanoma; 0.945 µM in the assay with MOLT-4 leukemia; 1.75 µM with NCI-H23 lung; 3.29 µM with TK-10 renal; 1.19 µM in the assay with MDA-MB-435. Moreover, the GI50 is 2 µM in the assay on ACHN renal, 1.32 µM in the assay with M14 melanoma, 2.17 µM with NCI-H226 lung and 5.37 µM in the assay on SK-OV-3 ovarian. For the same compound, the TGI in the assay with NCI-H522 lung stood at 2.43 µM; with MALME-3M melanoma it was 6.24 µM; in the assay on MOLT-4 leukemia, 4.8 µM; in the assay with NCI-H23 lung it was 4.25 µM; in the assay with TK-10 renal it was 9.13 µM; with MDA-MB-435, 10 µM. Besides, the TGI in the assay on ACHN renal is 4.27 µM; with M14 melanoma, 4.72 µM; in the assay with NCI-H226 lung, 4.63 µM; in the assay on SK-OV-3 ovarian it was 15.4 µM.
As for `COc1c2c(cc3c1OCO3)[C@]13C=C[C@H](OC)C[C@H]1N(C2)CC3O` (stereo not given in full), the TGI in the assay on NCI-H522 lung, in the assay on MALME-3M melanoma, in the assay with MOLT-4 leukemia, with NCI-H23 lung, with TK-10 renal and in the assay with MDA-MB-435 was greater than 100 µM throughout. Moreover, the TGI in the assay with ACHN renal, in the assay on M14 melanoma, in the assay on NCI-H226 lung and in the assay with SK-OV-3 ovarian was greater than 100 µM each time.
On to `Nc1nc(Nc2cccnc2)sc1C(=O)c1ccccc1F`, for which the GI50 was 8.26 µM in the assay on NCI-H522 lung; 3.29 µM in the assay on MALME-3M melanoma; 2.52 µM in the assay with MOLT-4 leukemia; 2.55 µM in the assay on NCI-H23 lung; 4.09 µM in the assay on TK-10 renal; 3.74 µM in the assay on MDA-MB-435. The GI50 was 2.53 µM in the assay on ACHN renal, 4.64 µM in the assay on M14 melanoma, 2.67 µM in the assay on NCI-H226 lung and 15.7 µM with SK-OV-3 ovarian. Moreover, the TGI with NCI-H522 lung is greater than 64.1 µM; in the assay on MALME-3M melanoma, 12.4 µM; in the assay on MOLT-4 leukemia, greater than 26.6 µM; in the assay with NCI-H23 lung, 12.4 µM; in the assay on TK-10 renal, 49.9 µM; in the assay with MDA-MB-435, 24.3 µM. The TGI in the assay with ACHN renal was greater than 100 µM; in the assay on M14 melanoma it was 20.2 µM; in the assay on NCI-H226 lung, 31.4 µM; in the assay on SK-OV-3 ovarian, greater than 100 µM.
